# Data reported in ChEMBL document CHEMBL1909046, “DrugMatrix in vitro pharmacology data”.
# Target: Cytochrome P450 2C9 (Homo sapiens, UniProt P11712)
# Sequence (P11712 whole entry): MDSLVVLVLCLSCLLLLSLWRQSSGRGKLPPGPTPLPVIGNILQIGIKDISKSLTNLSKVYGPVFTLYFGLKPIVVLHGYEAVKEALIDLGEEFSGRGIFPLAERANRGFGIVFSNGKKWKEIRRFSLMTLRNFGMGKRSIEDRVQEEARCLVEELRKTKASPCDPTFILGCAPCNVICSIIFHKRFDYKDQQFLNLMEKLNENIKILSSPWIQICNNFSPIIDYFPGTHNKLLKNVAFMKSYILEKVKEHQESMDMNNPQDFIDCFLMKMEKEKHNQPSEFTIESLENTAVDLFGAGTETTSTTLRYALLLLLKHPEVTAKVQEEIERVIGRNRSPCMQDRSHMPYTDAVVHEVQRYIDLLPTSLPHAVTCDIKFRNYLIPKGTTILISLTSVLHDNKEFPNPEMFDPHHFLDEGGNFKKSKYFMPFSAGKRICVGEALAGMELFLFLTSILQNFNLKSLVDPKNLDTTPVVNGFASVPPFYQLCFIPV
smiles,measurement,value
O=C1CCc2cc(OCCCCc3nnnn3C3CCCCC3)ccc2N1 [CILOSTAZOL],IC50,10 µM
